Laboratory results from patent US11591243B2, “Industrial process and system for the inactivation of liquid waste” (CRISTALIA PRODUTOS QUIMICOS FARMACEUTICOS LTDA., priority 2018, dated 2023).
Where a name gives a salt, the structure may show the parent alone.

Legend:
[1] = Inactivation kinetics by HPLC of imatinib mesylate liquid waste with hypochlorous acid; type: physicochemical; details: 20 mg/mL aqueous solution, 1% hypochlorous acid aqueous solution as inactivation chemical agent
Method: The inactivation kinetics by HPLC of a liquid waste comprising 20 mg/mL imatinib mesylate aqueous solution was evaluated using a 1% hypochlorous acid aqueous solution as inactivation chemical agent, as illustrated in FIGS. 2 and 3. It is possible to verify that 10 minutes of exposure were enough for complete inactivation of imatinib mesylate by hypochlorous acid.
The equipment used was a High-Performance Liquid Chromatography-HPLC, Agilent Tech. Model 1260.
Solution A: Prepare a mixture of methanol and acetonitrile (300:200) and homogenize.
Mobile Phase: transfer 1.65 g of sodium dihydrogen phosphate dihydrate to a beaker. Dissolve in 550 mL of purified water and adjust pH to 8.0±0.2 using trimethylamine and homogenize. Add 450 mL of solution A, homogenize and filter using a membrane of 0.45 μm.
Chromatographic Conditions:
Column: Develosil ODS HG-5 (4.6×150 mm, 5 μm)—Phenomenex
Column temperature: 30° C.
Chromatographic time: 50 minutes
Retention time for imatinib: about 18 minutes
Sample temperature: 5° C.

[2] = Inactivation kinetics by HPLC of high potency APIs with chemical agents; type: physicochemical; details: chemical agents and analytical methods appropriate for each API; different exposure time; HPLC (FIG. 4)
Method: The inactivation kinetics by HPLC of high potency APIs bortezomib, decitabine, sunitinib malate, temozolomide and zoledronic acid was evaluated using chemical agents and analytical methods appropriate for each API.

Row | exposure time enough for complete inactivation [1] [min] | inactivation by chemical agent action [2] | Compound
1 | ≤ 10 |  | Cc1ccc(NC(=O)c2ccc(CN3CCN(C)CC3)cc2)cc1Nc1nccc(-c2cccnc2)n1 [imatinib mesylate]
2 |  | completely inactivated | CC(C)C[C@H](NC(=O)[C@H](Cc1ccccc1)NC(=O)c1cnccn1)B(O)O [bortezomib]
3 |  | completely inactivated | CCN(CC)CCNC(=O)c1c(C)[nH]c(/C=C2\C(=O)Nc3ccc(F)cc32)c1C [sunitinib malate]
